“Also recorded” adds a separate entry of the source.
How the values were obtained:
Ucp1 [1] = experiment: Western blot analysis of UCP1 protein in adipose tissues of treated mice; type: in vivo, BALB/c nude mice; details: loading control β-ACTIN, vs saline WAT, hydrate
Experimental: (§1) Mice (n=4; each group) were injected daily with either CL 316, 243 hydrate (1 mg/kg body weight intraperitoneally in test group (CL) or equal volume of saline in control (C) group animals for 7 days. After the in vivo DRS experiment, the mice was euthanized and fresh WAT tissues in control (C) and CL group were extracted and immediately frozen for RNA and protein expression analyses. WAT from the inguinal region and BAT from the interscapular region were stored in 10% normal buffered formalin (NBF) for hematoxylin and eosin (H&E) staining and Immunohistochemistry (IHC). BAT tissues extracted from mice injected with saline is marked as C BAT while BAT from CL injected mice as CL BAT. Similarly, WAT and beige refer to the WATs in saline (control) and CL injected group, respectively.
In various example embodiments, total protein lysates isolation from adipose tissues extracted from mice administered with either saline or CL (n=4, each group) was done in RadioImmunoPrecipitation Assay (RIPA) lysis buffer and quantified using the Biorad assay. Equal volume of proteins were loaded onto 10% Sodium Dodecyl Sulfate-Polyacrylamide Gel Electrophoresis (SDS-PAGE) followed by transfer to the PolyVinyliDene Fluoride (PVDF) membrane. […]

[2] = system: WAT (browning of white adipose tissue); experiment: In vivo DRS measurement of lipid fraction (browning marker) in adipose tissue; parameters: species or system BALB/c nude mice
Text: In particular, FIG. 5 depicts a schematic drawing of an example setup of in vivo DRS measurement system 500 for obtaining (e.g., generating or measuring) diffuse reflectance spectrum information (raw diffuse reflectance spectrum information) in a mouse model with partial skin incision using DRS spectroscopy in the NIR II optical window. In this regard, browning was induced in mice for 7 days by β-adrenergic administration followed by DRS measurement in the 1050 to 1350 nm range using an excitation-collection fiber probe 506 with source-detector fiber separations 508 configured to achieve a desired or sufficient depth of interrogation. The measured diffuse reflectance spectrum information obtained at the adipose tissue site was then processed according to various example embodiments to extract or derive water and lipid chromophore fractions (or water and lipid proportions or ratios) at the adipose tissue site in the 1050 nm to 1350 nm wavelength range. The water and lipid chromophore fractions were estimated from the measured DRS spectra by employing a lookup table (LUT) based on inverse Monte-Carlo modelling. In other words, the measured DRS spectra at the adipose tissue site is spectrally unmixed particularly for water and lipid chromophores using the Monte-Carlo based LUT within the wavelength range of 1050 nm to 1400 nm, or more preferably, 1050 nm to 1350 nm. […]

Ucp1 [3] = experiment: Real-Time qPCR of Ucp1 mRNA in adipose tissues of treated mice; type: in vivo, BALB/c nude mice; details: normalized to Gapdh mRNA
Experimental: as §1
In various example embodiments, total RNA was extracted with the RNeasy Lipid Tissue Mini Kit (Qiagen, Hilden, Germany) according to the manufacturer's instruction and Real-Time PCR was conducted using UCP1 primer pair UCP1_F: 5′-GGCCTCTACGACTCAGTCCA-3′ and UCP1_R: 5′-TAAGCCGGCTGAGATCTTGT-3′. GAPDH was used to normalize the relative mRNA expression by using a primer pair GAPDH_F: 5′-CAA GGT CAT CCA CTT-3′ and GAPDH_R: 5′-GGC CAT CCA CAG TCT GG-3′. The results are represented as mean±SE (n=4 in each group).

Ucp1 [4] = experiment: UCP1 immunohistochemistry (IHC) of WAT and BAT of treated mice; type: in vivo, BALB/c nude mice
Experimental: as §1
(§2) In various example embodiments, H&E staining and UCP1 IHC were performed by the Advanced Molecular Pathology Laboratory (AMPL) at the Institute of Molecular and Cell Biology (IMCB), A*STAR, according to standard operating procedures. 1:50 dilution of UCP1 antibody (Abcam) at pH 6.0 was used for UCP1 IHC. All the images were obtained by using Olympus microscope equipped with DS-L3+Filc camera with a ×20 objective lens. Software ImageJ was used to analyse the images.

WAT and BAT adipocytes = experiment: H&E staining of WAT and BAT of treated mice; type: in vivo, BALB/c nude mice
Experimental: as §1, §2

[5] = inguinal WAT, vs saline control WAT, hydrate
[6] = interscapular BAT, CL vs saline

## C[C@H](Cc1ccc2c(c1)OC(C(=O)[O-])(C(=O)[O-])O2)NC[C@H](O)c1cccc(Cl)c1.[Na+].[Na+] [CL, CL 316, 243 hydrate]
Ucp1 [1]
  UCP1 protein expression in WAT (beige): significantly induced; also recorded: higher expression
[2]; mice, 1 mg/kg intraperitoneally daily for 7 days, DRS 1050 to 1350 nm, MCLUT unmixing, control WAT 0.70±0.095, BAT 0.518±0.112
  lipid fraction (SLW) of beige adipose tissue (CL treated WAT): 0.628±0.076 a.u.
[2]; over a period of 7 days, CL treated animals
  extent of WAT browning indicated by calculated SLW: about 50%
Ucp1 [3]; BAT (CL) vs BAT (C)
  Ucp1 mRNA expression in BAT: did not significantly change
Ucp1 [3]; 1 mg/kg i.p. daily, 7 days
  Ucp1 mRNA expression in WAT (beige) relative to saline control (WAT): significantly enhanced
Ucp1 [4]; [5]
  UCP1 IHC signal in WAT (beige): significant emergence of UCP1 expression; also recorded: increased UCP1 staining
Ucp1 [4]; [6]
  UCP1 IHC signal in BAT: not changed
WAT and BAT adipocytes; [5]
  adipocyte morphology in WAT (beige), H&E staining: subpopulation of multilocular adipocytes are emerging
WAT and BAT adipocytes; [6]
  adipocyte appearance in BAT, H&E staining: appearance was not changed

From US20200367756A1, “METHOD AND SYSTEM FOR IN VIVO DETECTION OF ADIPOSE TISSUE BROWNING” (Agency for Science, Technology and Research, priority 2018, published 2020)
